# Measured values from the supplement of paper PMC11451515.
# System: P12-Ichikawa
# Test: cell viability relative to DMSO control; higher = less cytotoxic
# Conditions: 48 h
# Outline: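 Library compounds in DMSO were pin-dosed in an 11-point threefold series (47 μM to 0.79 nM) onto leukemia cells in 1536-well plates (5 μl). Plates held 500 cells/well of NOMO1 or SEM or 1000 cells/well of P12-Ichikawa, each adapted for at least four passages in each medium. Luminescence was read with CellTiter-Glo One after 48 h at 37°C. Viability means the per-plate percentage relative to DMSO wells, using cell-free wells as background.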
# [1] = HPLM + 10% dialyzed FBS, 0.000781 µM
# [2] = HPLM + 10% dialyzed FBS, 0.00234 µM
# [3] = HPLM + 10% dialyzed FBS, 0.00702 µM
# [4] = HPLM + 10% dialyzed FBS, 0.0211 µM
# [5] = HPLM + 10% dialyzed FBS, 0.0632 µM
# [6] = HPLM + 10% dialyzed FBS, 0.19 µM
# [7] = HPLM + 10% dialyzed FBS, 0.569 µM
# [8] = HPLM + 10% dialyzed FBS, 1.71 µM
# [9] = HPLM + 10% dialyzed FBS, 5.12 µM
# [10] = HPLM + 10% dialyzed FBS, 15.4 µM
# [11] = HPLM + 10% dialyzed FBS, 46.1 µM
# [12] = RPMI 5 mM glucose + 10% FBS, 0.000781 µM
# [13] = RPMI 5 mM glucose + 10% FBS, 0.00234 µM
# [14] = RPMI 5 mM glucose + 10% FBS, 0.00702 µM
# [15] = RPMI 5 mM glucose + 10% FBS, 0.0211 µM
# [16] = RPMI 5 mM glucose + 10% FBS, 0.0632 µM
# [17] = RPMI 5 mM glucose + 10% FBS, 0.19 µM
# [18] = RPMI 5 mM glucose + 10% FBS, 0.569 µM
# [19] = RPMI 5 mM glucose + 10% FBS, 1.71 µM
# [20] = RPMI 5 mM glucose + 10% FBS, 5.12 µM
# [21] = RPMI 5 mM glucose + 10% FBS, 15.4 µM
# [22] = RPMI 5 mM glucose + 10% FBS, 46.1 µM
# [23] = RPMI 5 mM glucose + 10% dialyzed FBS, 0.000781 µM
# [24] = RPMI 5 mM glucose + 10% dialyzed FBS, 0.00234 µM
# [25] = RPMI 5 mM glucose + 10% dialyzed FBS, 0.00702 µM
# [26] = RPMI 5 mM glucose + 10% dialyzed FBS, 0.0211 µM
# [27] = RPMI 5 mM glucose + 10% dialyzed FBS, 0.0632 µM
# [28] = RPMI 5 mM glucose + 10% dialyzed FBS, 0.19 µM
# [29] = RPMI 5 mM glucose + 10% dialyzed FBS, 0.569 µM
# [30] = RPMI 5 mM glucose + 10% dialyzed FBS, 1.71 µM
# [31] = RPMI 5 mM glucose + 10% dialyzed FBS, 5.12 µM
# [32] = RPMI 5 mM glucose + 10% dialyzed FBS, 15.4 µM
# [33] = RPMI 5 mM glucose + 10% dialyzed FBS, 46.1 µM
SMILES,cell viability [1] [%],cell viability [2] [%],cell viability [3] [%],cell viability [4] [%],cell viability [5] [%],cell viability [6] [%],cell viability [7] [%],cell viability [8] [%],cell viability [9] [%],cell viability [10] [%],cell viability [11] [%],cell viability [12] [%],cell viability [13] [%],cell viability [14] [%],cell viability [15] [%],cell viability [16] [%],cell viability [17] [%],cell viability [18] [%],cell viability [19] [%],cell viability [20] [%],cell viability [21] [%],cell viability [22] [%],cell viability [23] [%],cell viability [24] [%],cell viability [25] [%],cell viability [26] [%],cell viability [27] [%],cell viability [28] [%],cell viability [29] [%],cell viability [30] [%],cell viability [31] [%],cell viability [32] [%],cell viability [33] [%]
NC(CO)(CO)CCc1ccc(Sc2cccc(OCc3ccccc3)c2)cc1Cl,99.1,101,110,114,115,122,88.5,106,76.2,18.4,6.24,91.8,99.7,101,111,102,102,86.4,104,72.1,34.9,5.17,101,112,99.6,116,113,109,89.9,100,70.3,45.7,5.62
CC1(C)C(=O)N(CCN2CCC(C(=O)c3ccc(F)cc3)CC2)c2ccccc21,112,116,117,120,118,123,126,122,120,120,113,,,,,,,,,,,,109,110,118,123,126,125,121,123,115,97.9,93.5
OC[C@H]1O[C@H]([C@@H](F)[C@@H]1O)N2\C=C/C(=O)NC2=O,110,108,108,110,108,112,114,102,99.6,98,94.1,99,108,108,91.6,97.9,114,106,102,92.1,102,106,109,93.5,104,100,99.4,97,105,96,93.6,93.5,88.6
CCNC(=O)c1cc2c(-c3cc(OCCN4CCCC4)c(Cl)cc3Cl)nc(N)nc2s1,98.3,103,109,108,102,101,108,92.8,62.9,53.6,44.9,102,91.9,106,97,98.4,95.8,97.2,77.6,47.1,34,35.5,102,96.5,101,94.7,96,97.6,90.5,73.4,42,36.5,31.5
CCCCCCCc1ccc(CCc2cccc(O)c2C(=O)O)cc1,122,124,126,124,119,111,123,110,108,104,90.2,125,121,127,129,128,119,107,111,104,97.7,91.3,,,,,,,,,,,
O=C(NC[C@H](O)CN1CCc2ccccc2C1)c1cc(NC2COC2)ncn1,84.8,87.8,87.5,86.8,85.4,86.1,83.6,78.9,80,80.6,71.1,74,83.2,80,85.9,86.2,84.8,77.3,74,70.4,76.4,59.3,80.6,88.6,84.6,87.9,88.1,86.9,77.6,79.1,78.7,72,66.3
C=CC1=C(C(=O)O)N2C(=O)[C@@H](NC(=O)/C(=N\O)c3csc(N)n3)[C@H]2SC1,100,115,79.3,116,131,122,121,117,125,35.2,123,101,112,66.1,116,117,123,124,115,119,124,109,99.2,118,75.5,112,124,117,117,129,115,123,125
